# Literature values, collected in US20080019975A1, “Novel Regimens for Treating Diseases and Disorders” (BioAssets Development Corporation, priority 2006, published 2008).
# System: sciatica patients
# Details: IV administration, blinded trial versus placebo saline infusion
substance,measurement,value
infliximab,difference between patients treated with the drug versus placebo saline infusion,failed to show a difference
